Measurements: patent US11963962B2, “Platelet count-agnostic methods of treating myelofibrosis” (Sierra Oncology, Inc., priority 2018, dated 2024)
Values joined by “and” are separate entries in the source; they are usually repeats but may differ in a detail not shown here. Equal values may be shown once.

What was measured:
Format in all cases: in vivo, human
[1] = test system: myelofibrosis; assay: SIMPLIFY-1 Phase 3 trial: safety (anemia, platelet counts, hemoglobin)
Procedure: (§1) In the SIMPLIFY-1 trial (NCT01969838), the efficacy and safety of MMB versus ruxolitinib (RUX) was studied in patients with myelofibrosis who were naïve to treatment with a JAK inhibitor and a platelet count of ≥50×10^9/L. Patients (N=432) with high risk or intermediate-2 risk or symptomatic intermediate-1 risk myelofibrosis received 24 weeks of treatment with 200 mg MMB once daily or 20 mg RUX twice a day (or per label), after which all patients could receive open-label momelotinib. […] The primary endpoint was a reduction by at least 35% in the spleen volume at 24 weeks compared with baseline.
The mean platelet count for RUX patients is demonstrably lower than the mean platelet count for MMB patients.
The MMB subjects were thus at lower risk of developing thrombocytopenia (e.g., Grade 3 or 4 thrombocytopenia), or of having to undergo undesirable dose reduction because they were able to largely maintain their platelet counts during therapy.

[2] = test system: myelofibrosis; assay: SIMPLIFY-1 dynamic and time-to-event analyses of RBC transfusions
Text: The SIMPLIFY-1 (S1) trial, a double-blind, active-controlled Phase 3 study in which 432 patients received randomized treatment with MMB or RUX for 24 weeks was previously reported (Mesa R A, Kiladjian J J, Catalano J V. et al. “Simplify-1: A phase III randomized trial of momelotinib versus ruxolitinib in j anus kinase inhibitor—naïve patients with myelofibrosis”, Journal of Clinical Oncology, 2017; 35:3844-50).
Since transfusion burden is of significant concern to clinicians and patients, to better understand the dynamics of RBC transfusions we further examined the S1 data through statistical models utilizing a variety of novel anemia benefit endpoints including time until transfusion and overall intensity of transfusions across time. The proportions of patients with 0 and 4 transfusions were calculated and time-to-event analyses examining time-to-first and time-to-fifth units transfused also conducted. Since transfusions typically comprise 2 units, the fifth unit transfused represents a de facto third transfusion event. The number of units transfused were also considered to be recurrent events and examined with and without patients' baseline characteristics as covariates. Finally, a mixture model, based on a zero-inflated negative binomial (ZINB) distribution fit to the transfusion data, was employed to compare between the treatment groups the proportions of subjects with zero transfusion burden and the mean transfusion rates.

[3] = test system: myelofibrosis; assay: SIMPLIFY-1 Phase 3 trial: total symptom score (TSS) response at week 24; conditions: for TSS Responders / TSS proportion (Wilson 95% CI) / TSS Absolute risk difference (Newcombe 95% CI): SIMPLIFY 1, 24 weeks; for TSS Absolute risk difference (Newcombe 95% CI): MMB vs Control; for TSS response rate: SIMPLIFY 1, week 24
Procedure: as §1
FIG. 8A: SIMPLIFY-1 study of MMB in a first line population previously untreated with JAKi. For SIMPLIFY-1, the goal was non-inferiority over ruxolitinib (RUX) (MMB: N=215 subjects, and RUX: N=217 subjects). FIG. 8B: SIMPLIFY-2 study of second line population of anemic or thrombocytopenic subjects previously treated with RUX (red blood cell (RBC) transfusions on RUX=64%. RUX dose adjustment for: thrombocytopenia=21%; anemia/hematoma=35%). For SIMPLIFY-2, the goal was superiority over best available treatment (BAT) (MMB: N=104 subjects, and BAT: N=52 subjects). In both SIMPLIFY-1 and SIMPLIFY: Primary endpoint: >=35% reduction in spleen volume at 24 weeks. Secondary endpoints: Total symptom score (TSS) response at 24 weeks. Effects on RBC transfusion requirements.
The SIMPLIFY 1 clinical trial data was reanalyzed for subgroups of subjects having particular baseline platelet counts in the MMB versus RUX arms of the study.
Patient data was analyzed according to the following baseline platelet count (PLT) subgroups and in particular according to the threshold PLT of 150×10^9/L: 1) PLT<50×10^9/L; 2) 50×10^9/L≤PLT<100×10^9/L; 3) 100×10^9/L≤PLT<150×10^9/L. The reanalyzed data is presented in Table 13 (SIMPLIFY 1). Selected data is also illustrated in the following figures.

[4] = test system: myelofibrosis; assay: Translational biology Phase 2 study (GS-US-352-1672) in transfusion dependent MF patients
Text: In a translational biology study, we determined the impact of momelotinib on plasma hepcidin, markers of iron storage and availability, erythropoiesis, and inflammation to explore mechanisms of the favorable effects of momelotinib on MF-associated anemia and transfusion independence. See Oh et al. “Hepcidin Suppression by Momelotinib Is Associated With Increased Iron Availability and Erythropoiesis in Transfusion-Dependent Myelofibrosis Patients”, Abstract #4282: Presented at ASH 60th Annual Meeting & Exposition: Dec. 1-4, 2018, San Diego, Calif., the disclosure of which is herein incorporated by reference.
Population: Primary MF (PMF), post-polycythemia vera MF (post-PV MF), or post-essential thrombocythemia MF (post-ET MF). Requiring MF therapy (in the opinion of the investigator). High risk or intermediate-2 (DIPSS). Transfusion Dependent (TD) at baseline. [defined as ≥4 U red blood cell (RBC) transfusion in the 8 weeks prior to the first dose of MMB]. Goal: Exploratory translational biology study (MMB: N=41 subjects). Objectives: Primary objective: determine the transfusion independence response rate (TI; ≥12 week & ≥8 week) for TD subjects with MF treated with momelotinib. Secondary objectives: Evaluate baseline levels and changes in markers of iron metabolism; Assess inhibition of JAK1/2; Evaluate momelotinib pharmacokinetics in transfusion-dependent subjects with MF; and Evaluate changes in circulating cytokine and inflammatory markers.

[5] = SIMPLIFY-1, 24 week randomized treatment period

SMILES: Cl.N#CCNC(=O)c1ccc(-c2ccnc(Nc3ccc(N4CCOCC4)cc3)n2)cc1 [MMB, N-(cyanomethyl)-4-(2-(4-morpholinophenylamino)pyrimidin-4-yl)benzamide]
- anemia rate ([1]; SIMPLIFY 1): 14%
- ≥Grade 3 anemia rate ([1]; SIMPLIFY 1): 6%
- platelet counts during treatment ([1]; SIMPLIFY 1, 24 week double blind phase, FIGS. 31-33): able to maintain platelet levels
- hemoglobin change ([1]; SIMPLIFY 1, after initiating MMB, FIG. 10): rapid and sustained hemoglobin improvement
- Kaplan-Meier estimate of the proportion of patients who did not require any units transfused [2, 5]: 73%
- proportion of patients requiring 4 or fewer units [2, 5]: 83%
- factor of increase of the odds of having zero units transfused ([2]; SIMPLIFY-1, first 24 weeks, ZINB covariate model, MMB vs RUX): 9.3
- hazard ratio, units transfused as recurrent events ([2]; SIMPLIFY-1, MMB vs RUX, models with and without baseline covariates): 0.522
- TSS Responders ([3]; 50 ≤ PLT < 100 ×10^9/L): 6
- TSS proportion (Wilson 95% CI) ([3]; 50 ≤ PLT < 100 ×10^9/L): 0.33
- TSS Absolute risk difference (Newcombe 95% CI) ([3]; 50 ≤ PLT < 100 ×10^9/L): 0.12
- TSS Responders ([3]; 100 ≤ PLT < 150 ×10^9/L): 7
- TSS proportion (Wilson 95% CI) ([3]; 100 ≤ PLT < 150 ×10^9/L): 0.24
- TSS Absolute risk difference (Newcombe 95% CI) ([3]; 100 ≤ PLT < 150 ×10^9/L): −0.15
- TSS Responders ([3]; ITT): 60
- TSS proportion (Wilson 95% CI) ([3]; ITT): 0.28
- TSS Absolute risk difference (Newcombe 95% CI) ([3]; ITT): −0.13
- TSS response rate ([3]; ITT, all patients): 28%
- TSS response rate ([3]; ITT, platelets 50-100 (subgroup 2)): 33%
- TSS response rate ([3]; ITT, platelets 100-150 (subgroup 3)): 24%
- TSS response rate ([3]; baseline TSS ≥ 6, all patients): 33%
- TSS response rate ([3]; baseline TSS ≥ 6, platelets 50-100 (subgroup 2)): 36%
- TSS response rate ([3]; baseline TSS ≥ 6, platelets 100-150 (subgroup 3)): 32%
- TSS response rate ([3]; baseline TSS ≥ 10, all patients): 33%
- TSS response rate ([3]; baseline TSS ≥ 10, platelets 50-100 (subgroup 2)): 36%
- TSS response rate ([3]; baseline TSS ≥ 10, platelets 100-150 (subgroup 3)): 32%
- Total Symptom Score (TSS) response ([3]; SIMPLIFY-1, overall): 28.4%
- TSS Noninferior Proportion Difference ([3]; SIMPLIFY-1, MMB vs RUX): 0.00 (−0.08, 0.08)
- ≥8 week transfusion independence rate ([4]; Phase 2 GS-US-352-1672, TD subjects, N=41): 39.0%
- ≥12 week transfusion independence rate ([4]; Phase 2 GS-US-352-1672, TD subjects, N=41, listed as momelotinib): 34% and 34.1%
- time to increased serum iron and transferrin ([4]; after momelotinib treatment initiation, FIG. 13): ≤ 2 weeks
- TI-NR patients with decreased transfusion burden (≥50%) ([4]; any 8 week period, units of RBC, ≥2 unit decrease): 77.8%
- effect on hepcidin ([4]; post-MMB administration, FIG. 11): consistently decreased hepcidin
